Melting point and IC50 data for 23 compounds are collected here from patent US8629168B2, “Benzoxazoles and oxazolopyridines being useful as janus kinases inhibitors” (priority 2006, dated 2014).

The target of one series is T1, GST-JAK2 (Homo sapiens, UniProt O60674).
T1 construct: the amino acid domain ASP751-VAL1129 of the JAK2 protein
In words: JAK2 kinase assay of the general description (alternative method, flash plate). It is filed as biochemical. The following applies: 1.0 μM ATP, read-out: IC50 with test in general description (named “alternative method to that given in the examples”) (“flash plate”). As for the experimental part:
Baculovirus including the amino acid domain ASP751-VAL1129 of the JAK2 protein is obtainable by ProQinase, Freiburg, Germany. The virus is scaled up as following: Virus containing media is collected from the transfected cell culture and used for infection to increase its titer. Virus containing media obtained after two rounds of infection is used for large-scale protein expression. For large-scale protein expression 100 cm^2 round tissue culture plates are seeded with 5×10^7 cells/plate and infected with 1 mL of virus-containing media (approx. 5 MOIs). After 3 days the cells are scraped off the plate and centrifuged at 500 rpm for 5 min. Cell pellets from 10-20, 100 cm^2 plates, are re-suspended in 50 mL of ice-cold lysis buffer (25 mMTris-HCl, pH7.5, 2 mMEDTA, 1% NP-40, 1 mM DTT, 1 mMP MSF). The cells are stirred on ice for 15 min and then centrifuged at 5000 rpms for 20 min. The protein is purified by loading the centrifuged cell lysate onto a 2 mL glutathione-sepharose column and washed three times with 10 mL of 25 mM Tris-HCl, pH 7.5, 2 mM EDTA, 1 mM DTT, 200 mM NaCl. The GST-tagged proteins are then eluted by 10 applications (1 mL each) of 25 mM Tris-HCl, pH 7.5, 10 mM reduced-glutathione, 100 mM NaCl, 1 mM DTT, 10% Glycerol and stored at −70° C.
Cancer Cell; 5: 231-239]. The test compound is dissolved in DMSO (10 mM) and stored at −20° C. Serial dilutions are freshly made in DMSO and are […] concentrated than test solutions (“pre-dilution plates”). They are further diluted with pure water to yield “master plates” containing 3 times concentrated test solutions in 3% DMSO. The final volume of the assay is 30 μL containing 10 μL of test solution (1% DMSO), 10 μL assay mix including the assay components described by Garcia-Echeverria (2004) and in the following section as well as 10 μL enzyme. The pipetting steps can be programmed to be performed either on the MultiPROBE Iix, MultiPROBE IILx or HamiltonSTAR robots in the 96 well format.
The protein kinase assays are carried as described in details by Garcia-Echeverria (see above). The assay for JAK2 is carried out in 96-well plates at ambient temperature for 10 min (filter-biding method) or 30 min (flash plates) in a finial volume of 30 μL including the following components: 300 ng of GST-JAK2, 20 mM Tris-HCl, pH 7.5, 1.0 mM MnCl2, 10 mM MgCl2, 1 mM DTT, 3 μg/mL poly(Glu, Tyr) 4:1, 1% DMSO and 1.0 μM ATP (γ-[^33P]-ATP 0.1 μCi); The assays are terminated by the addition of 20 μl of 125 mM EDTA. The capturing of the phosphorylated peptides by the filter-binding method is performed as following: 40 μL of the reaction mixture are transferred onto Immobilon-PVDF membranes previously soaked for 5 min with methanol, rinsed with water, then soaked for 5 min with 0.5% H3PO4 and mounted on vacuum manifold with disconnected vacuum source. After spotting all samples, vacuum is connected and each well rinsed with 200 μl 0.5% H3PO4. Free membranes are removed and washed 4× on a shaker with 1.0% H3PO4, once with ethanol. Membranes are counted after drying at ambient temperature, mounting in Packard TopCount 96-well frame, and addition of 10 μl/well of Microscint. The plates are eventually sealed and counted in a microplate scintillation counter (TopCount NXT, TopCount NXT HTS, PerkinElmer, Brussels, Belgium).
The assays for the flash plate method is carried out in a total volume of 30 μL at RT in conventional 96-well flash plates. The reaction is stopped after 30 min by the addition of 20 μL of 125 mM EDTA The assay plates are then washed three times with PBS and dried at room temperature. The plates are sealed and counted in a microplate scintillation counter (TopCount NXT, TopCount NXT HTS). IC50 values are calculated by linear regression analysis of the percentage inhibition of the compound either in duplicate, at four concentrations (usually 0.01, 0.1, 1 and 10 μM) or as 8 single point IC50 starting at 10 μM following by 1:3 dilutions.

In a further series the target is T2, GST-JAK2(808-1132) (Homo sapiens, UniProt O60674).
T2 construct: GST-JAK2(808-1132) is purchased from Invitrogen; purchased Invitrogen (Carlsbad, USA) #4288
Description: EPK JAK/TYK-kinase family profiling assay (Caliper mobility shift), JAK2. It is filed as biochemical. The note with it: Caliper mobility shift assay of Example 187, 20 μM ATP, read-out: IC50 with Test in present Example. The method in brief:
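Caliper mobility-shift assay with the GST-tagged kinase domain and a fluorescently labeled peptide substrate plus ATP, run 60 min at 30° C and then stopped with EDTA buffer. Turnover was taken as the substrate/product ratio. Compounds were tested at eight final concentrations from 10 to 0.003 μM.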

SMILES strings stand for the structures.

T1 sequence (O60674 751-1129): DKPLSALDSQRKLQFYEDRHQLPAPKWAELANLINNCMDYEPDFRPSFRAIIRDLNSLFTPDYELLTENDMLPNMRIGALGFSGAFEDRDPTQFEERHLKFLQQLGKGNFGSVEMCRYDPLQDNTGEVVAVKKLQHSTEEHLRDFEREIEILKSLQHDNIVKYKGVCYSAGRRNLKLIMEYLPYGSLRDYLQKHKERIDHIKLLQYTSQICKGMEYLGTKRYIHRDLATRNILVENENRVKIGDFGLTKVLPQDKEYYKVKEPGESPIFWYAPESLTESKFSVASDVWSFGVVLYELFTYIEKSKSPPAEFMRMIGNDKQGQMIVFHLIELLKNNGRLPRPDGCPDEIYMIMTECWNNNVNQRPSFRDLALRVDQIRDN
T2 sequence (O60674 808-1132): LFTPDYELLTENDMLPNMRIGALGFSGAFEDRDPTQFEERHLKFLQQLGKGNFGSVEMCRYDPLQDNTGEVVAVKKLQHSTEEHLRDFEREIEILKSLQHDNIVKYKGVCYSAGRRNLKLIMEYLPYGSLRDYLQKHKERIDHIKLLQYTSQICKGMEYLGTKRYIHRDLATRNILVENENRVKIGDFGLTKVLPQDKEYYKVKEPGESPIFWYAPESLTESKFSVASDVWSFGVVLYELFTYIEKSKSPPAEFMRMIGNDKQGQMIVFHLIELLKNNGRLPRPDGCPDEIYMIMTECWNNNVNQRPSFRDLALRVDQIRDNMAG

In the case of `COc1cc(Nc2nc3cccc(-c4ccc(NS(C)(=O)=O)cc4)c3o2)cc(OC)c1OC` (hydrate or solvate) [Example 26, N-{4-[2-(3,4,5-Trimethoxy-phenylamino)-benzooxazol-7-yl]-phenyl}-methanesulfonamide], the melting point is 222 to 225 °C. The same measure, in the same setting: next, `COc1cc(Nc2nc3cccc(-c4ccc(NC(C)=O)cc4)c3o2)cc(OC)c1OC` (hydrate or solvate) [Example 27, N-{4-[2-(3,4,5-Trimethoxy-phenylamino)-benzooxazol-7-yl]-phenyl}-acetamide]: 265 to 270 °C; `COc1cc(Nc2nc3cccc(-c4ccc(CN)cc4)c3o2)cc(OC)c1OC` (hydrate or solvate) [Example 29, [7-(4-Aminomethyl-phenyl)-benzooxazol-2-yl]-(3,4,5-trimethoxy-phenyl)-amine]: 208 to 211 °C; `COc1cc(Nc2nc3cccc(-c4ccc(CNC(C)=O)cc4)c3o2)cc(OC)c1OC` (hydrate or solvate) [Example 30, N-{4-[2-(3,4,5-Trimethoxy-phenylamino)-benzooxazol-7-yl]-benzyl}-acetamide]: 237 to 239 °C. Compound `CNC(=O)c1cc(-c2cccc3nc(Nc4cc(OC)c(OC)c(OC)c4)oc23)cs1` (hydrate or solvate) [Example 34, 4-[2-(3,4,5-Trimethoxy-phenylamino)-benzooxazol-7-yl]-thiophene-2-carboxylic acid methylamide] returned a melting point of 260 to 262 °C. Still for that read-out and setting: next, `COc1cc(Nc2nc3cccc(-c4ccc5[nH]cnc5c4)c3o2)cc(OC)c1OC` (hydrate or solvate) [Example 35, [7-(1H-Benzoimidazol-5-yl)-benzooxazol-2-yl]-(3,4,5-trimethoxy-phenyl)-amine]: 150 to 156 °C; `COc1cc(Nc2nc3ccnc(-c4ccc(N)cc4)c3o2)cc(OC)c1OC` (hydrate or solvate) [Example 36, [4-(4-Amino-phenyl)-oxazolo[5,4-c]pyridin-2-yl]-(3,4,5-trimethoxy-phenyl)-amine]: 148 to 151 °C. Take `COc1cc(Nc2nc3cccc(-c4cccc(C)c4)c3o2)cc(OC)c1OC` [Example 1, (7-m-Tolyl-benzooxazol-2-yl)-(3,4,5-trimethoxy-phenyl)-amine]: the melting point is 155 to 158 °C. The IC50 on GST-JAK2 amounted to 337 nM. In turn, `COc1cc(Nc2nc3cccc(-c4ccccc4)c3o2)cc(OC)c1OC` [Example 2, (7-Phenyl-benzooxazol-2-yl)-(3,4,5-trimethoxy-phenyl)-amine] gave a melting point of 182 to 185 °C. In the case of `COc1cc(Nc2nc3cccc(-c4cccnc4)c3o2)cc(OC)c1OC` [Example 3, (7-Pyridin-3-yl-benzooxazol-2-yl)-(3,4,5-trimethoxy-phenyl)-amine], the melting point lay within 165 to 170 °C. In addition, the IC50 on GST-JAK2 was found to be 583 nM. In turn, `COc1cccc(-c2cccc3nc(Nc4cc(OC)c(OC)c(OC)c4)oc23)c1` [Example 4, [7-(3-Methoxy-phenyl)-benzooxazol-2-yl]-(3,4,5-trimethoxy-phenyl)-amine] showed a melting point of 167 to 170 °C. Also, on GST-JAK2, the IC50 was 99 nM.

For the compound `COc1ccccc1-c1cccc2nc(Nc3cc(OC)c(OC)c(OC)c3)oc12` [Example 5, [7-(2-Methoxy-phenyl)-benzooxazol-2-yl]-(3,4,5-trimethoxy-phenyl)-amine], the melting point is 185 to 187 °C. The IC50 at GST-JAK2 came to 150 nM.

On to `COc1ccc(-c2cccc3nc(Nc4cc(OC)c(OC)c(OC)c4)oc23)cc1` [Example 7, [7-(4-Methoxy-phenyl)-benzooxazol-2-yl]-(3,4,5-trimethoxy-phenyl)-amine], for which the melting point lay within 179 to 182 °C. `COc1cc(Nc2nc3cccc(-c4cncc5ccccc45)c3o2)cc(OC)c1OC` [Example 8, (7-Isoquinolin-4-yl-benzooxazol-2-yl)-(3,4,5-trimethoxy-phenyl)-amine] yielded a melting point of 201 to 203 °C. In addition, the IC50 on GST-JAK2 is 368 nM. The compound `COc1cc(Nc2nc3cccc(-c4cccc(Cl)c4)c3o2)cc(OC)c1OC` [Example 9, [7-(3-Chloro-phenyl)-benzooxazol-2-yl]-(3,4,5-trimethoxy-phenyl)-amine] registered a melting point of 199 to 201 °C. The IC50 at GST-JAK2 came to 590 nM.

Turning to `CN(C)CCNC(=O)c1ccc(Nc2nc3cccc(-c4ccc(S(N)(=O)=O)cc4)c3o2)cc1` [Example 57, N-(2-Dimethylamino-ethyl)-4-[7-(4-sulfamoyl-phenyl)-benzooxazol-2-ylamino]-benzamide], the IC50 on GST-JAK2(808-1132) was determined as 37 nM; on GST-JAK2 it was 150 nM.

For the compound `COc1ccc(Nc2nc3cccc(-c4ccc(S(N)(=O)=O)cc4)c3o2)cc1OC` [Example 58, 4-[2-(3,4-Dimethoxy-phenylamino)-benzooxazol-7-yl]-benzenesulfonamide], the values for the IC50 on GST-JAK2(808-1132) and on GST-JAK2 were 37 nM and 41.5 nM, respectively. `COc1cc(Nc2nc3cccc(-c4ccc(S(N)(=O)=O)cc4)c3o2)cc(OC)c1` [Example 60, 4-[2-(3,5-Dimethoxy-phenylamino)-benzooxazol-7-yl]-benzenesulfonamide]: the results for the IC50 at GST-JAK2(808-1132) and at GST-JAK2 were 170 nM and 160 nM, respectively.

Consider `COc1cc(Nc2nc3ccnc(-c4ccc(CNS(C)(=O)=O)cc4)c3o2)cc(OC)c1OC` [Example 62, N-{4-[2-(3,4,5-Trimethoxy-phenylamino)-oxazolo[5,4-c]pyridin-4-yl]-benzyl}-methanesulfonamide], for which the values for the IC50 on GST-JAK2(808-1132) and on GST-JAK2 were 16 nM and 230 nM, respectively.

Take `CNS(=O)(=O)c1ccc(-c2cccc3nc(Nc4ccc(OC)cc4)oc23)cc1` [Example 139, 4-[2-(4-Methoxy-phenylamino)-benzooxazol-7-yl]-N-methyl-benzenesulfonamide]: the half-inhibitory concentration (IC50) stood at 120 nM on GST-JAK2(808-1132) and 400 nM on GST-JAK2.

Take `COc1cc(Nc2nc3cccc(-c4ccc(CC(=O)N5CCOCC5)cc4)c3o2)cc(OC)c1OC` [Example 140, 1-Morpholin-4-yl-2-{4-[2-(3,4,5-trimethoxy-phenylamino)-benzooxazol-7-yl]-phenyl}-ethanone]: the IC50 at GST-JAK2(808-1132) amounted to 3.7 nM; at GST-JAK2 it was 140 nM.

With `COc1cc(Nc2nc3cccc(-c4ccc(C(=O)N5CCOCC5)cc4)c3o2)cc(OC)c1OC` [Example 141, Morpholin-4-yl-{4-[2-(3,4,5-trimethoxy-phenylamino)-benzooxazol-7-yl]-phenyl}-methanone], the IC50 came to 8.1 nM on GST-JAK2(808-1132) and 220 nM at GST-JAK2. For `COc1cc(Nc2nc3cccc(-c4ccc(C(=O)N5CCN(C)CC5)cc4)c3o2)cc(OC)c1OC` [Example 142, (4-Methyl-piperazin-1-yl)-{4-[2-(3,4,5-trimethoxy-phenylamino)-benzooxazol-7-yl]-phenyl}-methanone] the same measures were 58.5 nM and 700 nM.
